Laboratory results reported in the NIST ThermoML archive (doi:10.1016/j.fluid.2015.07.012).

Test: xn = mol fraction of the nth substance listed
Conditions: Liquid; for viscosity: Capillary tube (Ostwald / Ubbelohde) method; for mass density: Vibrating tube method

CCCO [propan-1-ol] + O
Conditions	mass density, 10000 kPa [kg/m3]	mass density, 20000 kPa [kg/m3]	mass density, 30000 kPa [kg/m3]	mass density, 40000 kPa [kg/m3]	viscosity, 10000 kPa [mPa·s]	viscosity, 20000 kPa [mPa·s]	viscosity, 30000 kPa [mPa·s]	viscosity, 40000 kPa [mPa·s]
350.7 K, x1 = 0.1	919.5	924.38	929.09	934.42	0.591	0.611	0.63	0.635
350.7 K, x1 = 0.2	878.37	883.66	889.66	895.4	0.723	0.763	0.81	0.826
350.7 K, x1 = 0.3	847.8	854.62	861.08	866.79	0.77	0.814	0.85	0.861
350.7 K, x1 = 0.4	826	833.03	840.74	847.26	0.758	0.81	0.86	0.883
350.7 K, x1 = 0.6	796.1	804.64	812.37	819.69	0.737	0.774	0.848	0.88
350.7 K, x1 = 0.8	776.11	786.05	794.61	802.32	0.689	0.736	0.827	0.864
350.7 K, x1 = 1	763.09	772.75	781.33	789.02	0.694	0.753	0.823	0.869
373.2 K, x1 = 0.1	900.32	905.78	911.46	916.96	0.439	0.441	0.455	0.463
373.2 K, x1 = 0.2	857.3	863.27	869.79	875.69	0.504	0.513	0.533	0.547
373.2 K, x1 = 0.3	827.05	834.28	842.03	848.33	0.531	0.55	0.577	0.599
373.2 K, x1 = 0.4	804.56	813.43	820.4	827.89	0.514	0.542	0.57	0.6
373.2 K, x1 = 0.6	774.56	784.28	792.47	800.74	0.51	0.541	0.576	0.611
373.2 K, x1 = 0.8	755.44	765.59	774.18	782.84	0.49	0.531	0.572	0.614
373.2 K, x1 = 1	741.54	752.5	762.28	770.94	0.488	0.533	0.581	0.613
476.2 K, x1 = 0.1	790.18	799.73	810.27	818.93	0.161	0.171	0.175	0.179
476.2 K, x1 = 0.2	739.33	752.08	764.81	775.35	0.162	0.172	0.181	0.189
476.2 K, x1 = 0.3	702.79	718.75	733.87	745.92	0.157	0.17	0.183	0.195
476.2 K, x1 = 0.4	678.7	697.03	713.61	726.38	0.153	0.17	0.189	0.21
476.2 K, x1 = 0.6	646.98	667.25	686.56	700.42	0.145	0.161	0.178	0.195
476.2 K, x1 = 0.8	627.55	651.81	672.08	686.68	0.139	0.157	0.173	0.188
476.2 K, x1 = 1	612.56	640.86	662.44	677.8	0.137	0.157	0.176	0.192
